Several values for one entry are separate records, joined by “and”; a condition that tells them apart may be missing. Equal entries are not always repeated.
Columns and labels:
[1] = test system: tissue factor preparation (saline extract of baboon brain); assay: Clotting assay in normal baboon plasma with baboon brain tissue factor; type: biochemical
Description: The samples were mixed and briefly incubated at 37° C. The samples were added to an Electra 800 Automatic Coagulation Timer (Medical Laboratories Automation, Pleasantville, N.Y.). […] A tissue factor preparation was made as a saline extract of baboon brain from freshly frozen brain tissue and characterized for its ability to initiate coagulation in baboon plasma. A concentration of tissue factor that gave a clotting time of about 40 seconds was selected.

[2] = test system: platelet accumulation at sites of arterial thrombosis; assay: Platelet accumulation on endarterectomized baboon aorta in an extracorporeal shunt; type: in vivo
Source text: A model of aortic endarterectomy was utilized in baboons, essentially as described by Lumsden et al. (Blood 81:1762-1770 (1993)). A section of baboon aorta 1-2 cm in length was removed, inverted and scraped to remove the intima of the artery and approximately 50% of the media. The artery was reverted back to its correct orientation, cannulated on both ends and placed into an extracorporeal shunt in a baboon, thereby exposing the mechanically injured artery to baboon blood via the shunt. Just prior to opening of the shunt to the circulating blood, ^111In-labeled autologous platelets were injected intravenously into the animal. The level of platelet accumulation at the site of the injured artery was determined by real-time gamma camera imaging.
The injured arteries were measured continuously for 60 minutes. […] At a 1.0 mg/kg bolus injection, approximately 90% of platelet accumulation was inhibited at 1 hour post drug administration.

rabbit plasma = assay: Prothrombin time in plasma of balloon angioplasty rabbits; type: in vivo; details: for Clotting Time (prothrombin time), individual animals: listed as DEGR-FVIIa
Description: The test drug delivery for the animals consisted of an initial bolus injection immediately prior to balloon angioplasty, followed by a continuous systemic infusion by osmotic pump via the internal jugular vein. The duration of the drug infusion was 3 days. The control animals received heparin, 150 U/kg IV bolus, prior to balloon angioplasty followed by saline infusion. The DEGR-FVIIa treated animals received a 1 mg/kg bolus injection followed by 50 μg/kg/hr infusion.
Prothrombin time and concentration of DEGR-FVIIa in the blood were determined at immediately pre-bolus injection of the test compound, 1 hr post bolus injection, and at 3 days at the end of continuous infusion. One to two mls of citrated plasma was obtained and the prothrombin times and antigen levels determined.
A standard clotting assay was used to monitor the prothrombin time in the control and DEGR-FVIIa-treated animals as follows. Twenty-five microliters of test rabbit plasma, collected with sodium citrate as anticoagulant, was added to 150 μl of TBS (20 mM Tris, pH 7.4, 150 mM NaCl). The samples were mixed and added to an Electra 800 Automated Coagulation Timer (Medical Laboratories Automation, Pleasantville, N.Y.). After incubation, 200 μl of thromboplastin preparation (Sigma Chemical) containing 25 mM CaCl2 was added to the plasma preparations. A concentration of thromboplastin that gave a clotting time of approximately 20 seconds in the control rabbit plasma was selected.

[3] = test system: cell-surface tissue factor on baboon smooth muscle cells; assay: Cell-surface Factor Xa generation on baboon SMCs; type: cell-based
Source text: A cell-surface chromogenic assay was developed, essentially as described in Example VIII above, to measure the efficacy of DEGR-FVIIa to block FVIIa binding to cell-surface tissue factor and the subsequent conversion of Factor X to Factor Xa on monolayers of baboon smooth muscle cells (SMCs). This method is a modification of those described by Sakai et al., J. Bio. Chem. 264:9980-9988 (1989) and Wildgoose et al., Proc. Natl. Acad. Sci. USA. 87:7290-7294 (1990). Baboon SMCs were obtained from the University of Washington, Seattle, Wash., and were cultured from aortic explants. The baboon SMCs were plated into 96-well culture dishes at a concentration of 8,000 cells/well in 200 μl/well DMEM culture media supplemented with 10% fetal calf serum, and maintained in this media for 4 days at 37° C. in 5% CO2. At the time of assay 110 μl of culture media was removed, and increasing concentrations of FVIIa or FVIIa in combination with DEGR-FVIIa were added to wells. A standard curve for FVIIa concentration was generated, ranging from 5 nM to 0.04 nM. […] Twenty-five microliters per well of 0.8 mM S-2222, a factor Xa-specific chromogenic substrate, in Tris buffer was added and the absorbance at 405 nm read after 60 mins in a Thermomax microplate reader (Molecular Devices Corp., Menlo Park, Calif.).

DEGR-Factor VIIa: Recombinant human Factor VIIa with its active site derivatized by Dansyl-L-Glu-Gly-Arg-chloromethyl Ketone (DEGRck)
Clotting time ([1]; 0.5 μg/ml plasma): 46.2 s | Clotting time ([1]; 1.0 μg/ml plasma): 50.8 s | Clotting time ([1]; 2.5 μg/ml plasma): 64.5 s | Clotting time ([1]; 5.0 μg/ml plasma): 108.1 s | Clotting time ([1]; 10.0 μg/ml plasma): 158.4 s | platelet accumulation ([2]; baboon, 0.005 mg/kg bolus injection): inhibited platelet accumulation | inhibition of platelet accumulation ([2]; baboon, 1.0 mg/kg bolus injection, 1 hour post drug administration): approximately 90% | thrombus formation (platelet deposition) ([2]; bolus injection, arteries measured over 60 minutes, versus saline-treated controls): significantly inhibited the development of platelet-rich thrombi | Plasma clotting time, Mean (rabbit plasma; 1 Hr POST ANGIO): 40.8 | Plasma clotting time, Mean (rabbit plasma; 3 Days POST ANGIO): 21.06 | Clotting Time (prothrombin time), individual animals (rabbit plasma; 1 hour after 1 mg/kg bolus, 50 μg/kg/hr infusion): 40.1 s and 34 s and 50 s and 33.3 s and 45.8 s and 41.6 s | Clotting Time (prothrombin time), individual animals (rabbit plasma; 3 days, end of 50 μg/kg/hr infusion): 18.3 s and 20.9 s and 21.7 s and 21 s and 21.2 s and 21.9 s and 22.4 s | Plasma clotting time, Mean (rabbit plasma; PRE-BLEED): 23.2 | Clotting Time (prothrombin time), individual animals (rabbit plasma; Pretreatment (pre-bolus)): 22.5 s and 24.3 s and 24.7 s and 23.6 s and 20.6 s and 23.5 s | inhibition in the generation of Factor Xa chromogenic activity ([3]; 10-fold lower level of DEGR-FVIIa than FVIIa (5 nM)): 40% | inhibition of the chromogenic activity ([3]; equal molar ratio of DEGR-FVIIa to FVIIa (5 nM)): > 90%

From patent US20040087498A1, “Modified factor VII” (Novo Nordisk Health Care AG, priority 1991, published 2004)
